The test system of data set [1] is Soybean plants (Glycine max L. cv. Stine 0480) with induced Fe chlorosis. Put plainly: Efficacy of Fe chelates to provide Fe to soybean plants in hydroponics: Fe content in plants. The data set is classed as in vivo. As for the experimental part:
(§1) Soybean seeds (Glycine max L. cv. Stine 0480) were germinated at 30° C. and 60% RH on paper moistened with 1 M CaSO4 in dark for 2 days. Afterwards, seedlings were placed in 10 L containers (50 seedlings per container) filled with a 1/5 diluted EDTA buffered nutrient solution (macronutrients (mM)—1.0 Ca(NO3)2, 0.9 KNO3, 0.3 MgSO4, 0.1 KH2PO4; cationic micronutrients (μM)—5.0 EDTA/Fe^3+, 2.5 MnSO4, 1.0 CuSO4, 10 ZnSO4, 1.0 CoSO4, 1.0 NiCl2, 115.5 Na2EDTA; anionic micronutrients (μM)-35 NaCl, 10 H3BO3, 0.05 Na2MoO4; 0.1 mM HEPES) for 6 days. On the 7th day, in order to induce Fe chlorosis, seedlings were transferred to 12 L polypropylene buckets containing aerated full strength EDTA buffered nutrient solution but without Fe^3+-chelate. Plants were grown under these conditions until clear symptoms of Fe deficiency were observed (7 days) and then plants were placed in 2 L pots (6 plants per pot) covered with black plastic to avoid light exposure. The effect of different Fe chelates and doses were compared as Fe sources. Chelates used in the treatments were o,o-EDDHA/Fe^3+, o,p-EDDHA/Fe^3+, EDTA/Fe^3+ and Example 1/Fe^3+. The last one is the Fe chelate of the compound of the example 1: 2-(2-((2-hydroxybenzyl)amino)ethylamino)-2-(2-hydroxyphenyl)acetic acid (DCHA). Nutrient solution contained macronutrients and anionic micronutrients as for the seedling period and the following cationic micronutrients composition: (μM) 1.0 MnSO4, 0.5 CuSO4, 0.5 ZnSO4, 0.1 NiCl2 and 0.1 CoSO4. Also, 1 g·L^−1 of CaCO3 was added to the nutrient solution to buffer pH at 7.5 and to simulate conditions of a calcareous soil. Plants were grown for 21 days in this nutrient solution in a growth chamber provided with fluorescent and sodium vapour lamps with a 16 h/30° C. and 50% humidity day and 8 h/25° C. and 70% humidity night regime. Water was added every 2 days and the nutrient solution was renewed every 7 days. Treatments were replicated four times in a completely randomised design. Plants were harvested after 7, 14 and 21 days.
Root and shoot were separated and washed using Tween 80 (Merck) and HCl solution and fresh and dry (after oven dry procedure) weights were determined. Samples were ground and after dry digestion in a muffle furnace (480° C.), ashes are dissolved in HCl. Fe, Mn, Cu and Zn were analysed by atomic absorption spectrometry.

Data set [2] has the same test system. In words: Efficacy of Fe chelates to provide Fe to soybean plants in hydroponics: SPAD index. The data set is classed as in vivo. The following applies: for Regreening of plants (SPAD index): 20 days after treatment, regardless of the doses (5 and 10 μM). As for the experimental part: as §1
During the experiment, SPAD readings with a chlorophyll-meter (Minolta SPAD-502) were taken for all leaf stages (average of two or three readings per stage) every second day. Only values measured for the youngest fully open leaves (the 2nd stage at the 2nd day, the third at the 10th day and the fourth at the 20th day) are here presented (Table 1)

Data set [3] shares this test system. Put plainly: Efficacy of Fe chelates to provide Fe to soybean plants in soil conditions: SPAD index. The data set is classed as in vivo. The conditions noted are these: for SPAD index / Recovery from chlorosis (SPAD): calcareous soil; for Recovery from chlorosis (SPAD): two days after the treatment application. The method, then:
(§2) Soybean seeds (Glycine max L. cv. Stine 0480) were germinated at 30° C. and 60% RH on paper moistened with 1 M CaSO4 in dark for 2 days. Afterwards, seedlings were placed in 10 L containers (50 seedlings per container) filled with a 1/5 diluted EDTA buffered nutrient solution (macronutrients (mM)—1.0 Ca(NO3)2, 0.9 KNO3, 0.3 MgSO4, 0.1 KH2PO4; cationic micronutrients (μM)—5.0 EDTA/Fe^3+, 2.5 MnSO4, 1.0 CuSO4, 10 ZnSO4, 1.0 CoSO4, 1.0 NiCl2, 115.5 Na2EDTA; anionic micronutrients (μM)—35 NaCl, 10 H3BO3, 0.05 Na2MoO4; 0.1 mM HEPES) for 4 days. Then, in order to induce Fe chlorosis, nutrient solution without iron was used for two more days and then plants were transplanted in 1 L pots (3 plants per pot) containing 700 g of a calcareous soil ([…] calcium carbonate, 89 g·Kg^−1 CaCO3 active, pH 7.70) and 300 g of lime sand covered with black plastic to avoid light exposure. The effect of different Fe chelates were compared as Fe sources: o,o-EDDHA/Fe^3+, o,p-EDDHA/Fe^3+, EDTA/Fe^3+ and Example 1/Fe^3+. The last one is the Fe chelate of the compound of the example 1: 2-(2-((2-hydroxybenzyl)amino)ethylamino)-2-(2-hydroxyphenyl)acetic acid. Plants were grown for 21 days in this soil conditions in a growth chamber provided with fluorescent and sodium vapour lamps with a 16 h/30° C. and 50% humidity day and 8 h/25° C. and 70% humidity night regime. Treatments were replicated five times in a completely randomised design. Single plants were harvested after 2, 7 and 21 days.
During the experiment, SPAD readings with a chlorophyll-meter (Minolta SPAD-502) were taken for all leaf stages (average of two or three readings per stage) every second day. Values measured for the 2nd stage at the 2nd day, the third at the 12th day and the fourth and fifth at the 22th day) are here presented (Table 4).

The test system is the same in data set [4]. In words: Efficacy of Fe chelates in soil conditions: shoot dry weight and Fe concentration in leaves. The data set is classed as in vivo. The following applies: calcareous soil, three sampling times. As for the experimental part: as §2, with “Plants were grown for 21 days in this soil conditions in a growth chamber provided with fluorescent and sodium vapour lamps with a 16 h/30° C. and 50% humidity day and 8 h/25° C. and 70% humidity night regime. Treatments were replicated five times in a completely randomised design. Single plants were harvested after 2, 7 and 21 days.” left out
In each sampling time shoots were separated and washed using Tween 80 (Merck) and HCl solution and fresh and dry (after oven dry procedure) weights were determined. […] Fe, Mn, Cu and Zn were analysed by atomic absorption spectrometry.

For data set [5] the following is noted: compared with o,o-EDDHA/Fe^3+; Yunta et al. 2003; cited from earlier work.
Setting [6] is: 5 μM chelate (low dose), 1st sampling 7 days after treatment.
The mark [7] stands for this setting: 5 μM chelate (low dose), 2nd sampling 14 days after treatment.
[8] abbreviates: 5 μM chelate (low dose), 3rd sampling 21 days after treatment.
[9] abbreviates: 10 μM chelate (high dose), 1st sampling 7 days after treatment.
[10] abbreviates: 10 μM chelate (high dose), 2nd sampling 14 days after treatment.
[11] abbreviates: 10 μM chelate (high dose), 3rd sampling 21 days after treatment.
The mark [12] stands for this setting: 5 μM chelate, 2 days after treatment (2nd stage).
The mark [13] stands for this setting: 5 μM chelate, 10 days after treatment (3rd stage).
The mark [14] stands for this setting: 5 μM chelate, 20 days after treatment (4th stage).
Where [15] appears, read: 10 μM chelate, 2 days after treatment (2nd stage).
Setting [16] is: 10 μM chelate, 10 days after treatment (3rd stage).
The mark [17] stands for this setting: 10 μM chelate, 20 days after treatment (4th stage).
[18] abbreviates: 2 days after treatment (2nd stage).
The mark [19] stands for this setting: 12 days after treatment (3rd stage).
The mark [20] stands for this setting: 22 days after treatment (4th stage).
Where [21] appears, read: 22 days after treatment (5th stage).

As for `O=C([O-])CN(CCN(CC(=O)[O-])CC(=O)[O-])CC(=O)[O-].[Fe+3]` [EDTA/Fe^3+], the Fe content in data set [1] (setting [6]) is 14.2 c μg Fe per plant; in data set [1] (setting [7]), 19.6 c μg Fe per plant; in data set [1] (setting [8]), 22.6 c μg Fe per plant; in data set [1] (setting [9]), 27.7 b μg Fe per plant; in data set [1] (setting [10]), 32.6 b μg Fe per plant; in data set [1] (setting [11]), 47.6 b μg Fe per plant. Besides, the SPAD index in data set [2] (setting [12]) was 6.8 bcd; in data set [2] (setting [13]), 6.9 days; in data set [2] (setting [14]), 11.4 c; in data set [2] (setting [15]), 8.1 abc; in data set [2] (setting [16]) it was 16.6 c; in data set [2] (setting [17]) it was 19.9 b.

`O=C(O)C(NCCNCc1ccccc1O)c1ccccc1O` (stereo not shown) [Example 1, 2-(2-((2-hydroxybenzyl)amino)ethylamino)-2-(2-hydroxyphenyl)acetic acid]: the “Efficacy against iron chlorosis” value in data set [3] (highly calcareous soil, only one treatment application) is on record as “efficient to solve iron chlorosis in highly calcareous conditions”. For the same compound, the “Regreening of plants (SPAD index)” value in data set [2] is “completely regreened”. The “Speed of action to correct iron chlorosis” value in data set [2] (low doses, similar to o,p-EDDHA, higher than o,o-EDDHA) is listed as “fast action to correct iron chlorosis”.

As for `O=C([O-])C(NCCNCc1ccccc1[O-])c1ccccc1[O-].[Fe+3]` (stereo not shown) [Example 1/Fe^3+], the Fe content in data set [1] (setting [6]) was found to be 57.4 a μg Fe per plant; in data set [1] (setting [7]), 152 a μg Fe per plant; in data set [1] (setting [8]), 268 a μg Fe per plant; in data set [1] (setting [9]), 69.3 a μg Fe per plant; in data set [1] (setting [10]), 136 a μg Fe per plant; in data set [1] (setting [11]) it was 235 a μg Fe per plant. Also, the “Fe provided to plants compared with the other treatments” value in data set [1] (hydroponics, lower Fe application (5 μM)) was “significantly higher amounts of iron and faster”. Further, the “Dry weight of shoots (FIG. 2)” value in data set [4] is “efficient Fe chlorosis corrector”. For the same compound, the SPAD index is 23.9 in data set [3] (setting [18]); 41.0 in data set [3] (setting [19]); 34.1 in data set [3] (setting [20]); 26.6 in data set [3] (setting [21]); 8.4 abc in data set [2] (setting [12]); 32.8 a in data set [2] (setting [13]). Moreover, the SPAD index in data set [2] (setting [14]) stood at 34.8 a; in data set [2] (setting [15]) it was 8.8 ab; in data set [2] (setting [16]), 35.7 a; in data set [2] (setting [17]), 35.0 a. The “Recovery from chlorosis (SPAD)” value in data set [3] is “better recovery”.

Consider `O=C([O-])C(NCCNC(C(=O)[O-])c1ccccc1[O-])c1ccccc1[O-].[Fe+3]` (stereo not shown) [o,o-EDDHA/Fe^3+], for which the Fe content is reported as 26.0 bc μg Fe per plant in data set [1] (setting [6]); 83.6 b μg Fe per plant in data set [1] (setting [7]); 202 b μg Fe per plant in data set [1] (setting [8]); 61.4 a μg Fe per plant in data set [1] (setting [9]); 129 a μg Fe per plant in data set [1] (setting [10]); 254 a μg Fe per plant in data set [1] (setting [11]). Also, the SPAD index in data set [3] (setting [18]) is 22.4; in data set [3] (setting [19]) it was 42.1; in data set [3] (setting [20]), 34.1; in data set [3] (setting [21]), 28.8; in data set [2] (setting [12]), 6.2 cd; in data set [2] (setting [13]) it was 26.7 b. For the same compound, the SPAD index is recorded as 30.2 a in data set [2] (setting [14]), 9.1 ab in data set [2] (setting [15]), 31.6 ab in data set [2] (setting [16]) and 32.4 a in data set [2] (setting [17]). The “Regreening of plants (SPAD index)” value in data set [2] is “completely regreened”.

Regarding `O=C([O-])C(NCCNC(C(=O)[O-])c1ccccc1[O-])c1ccc(O)cc1.[Fe+3]` (stereo not shown) [o,p-EDDHA/Fe^3+], the Fe content in data set [1] (setting [6]) is 43.0 ab μg Fe per plant; in data set [1] (setting [7]), 128 a μg Fe per plant; in data set [1] (setting [8]) it was 223 b μg Fe per plant; in data set [1] (setting [9]) it was 77.8 a μg Fe per plant; in data set [1] (setting [10]), 129 a μg Fe per plant; in data set [1] (setting [11]) it was 259 a μg Fe per plant. Further, the SPAD index in data set [3] (setting [18]) is 25.8; in data set [3] (setting [19]), 41.2; in data set [3] (setting [20]), 33.0; in data set [3] (setting [21]) it was 21.0; in data set [2] (setting [12]), 8.1 abc; in data set [2] (setting [13]), 30.9 ab. Further, the SPAD index is listed as 32.2 a in data set [2] (setting [14]), 10.4 a in data set [2] (setting [15]), 33.1 a in data set [2] (setting [16]) and 32.9 a in data set [2] (setting [17]). Besides, the “Recovery from chlorosis (SPAD)” value in data set [3] is reported as “better recovery”. Moreover, the “Stability of the Fe3+ chelate” value in data set [5] is listed as “lower stability”. The “Regreening of plants (SPAD index)” value in data set [2] is recorded as “completely regreened”.

Source of the values: patent US7943797B2, “Products for the treatment of the iron chlorosis” (Tradecorp, S.A., priority 2006, dated 2011).
